One experiment concerns the target T1, Aβ protein (Homo sapiens, UniProt P05067).
T1 construct: The bar graph 700 includes a control sample with 10 μM Aβ protein
Nature of the experiment: Aβ fibrillization, percent of control. Type of experiment: biochemical. The conditions noted are these: for Aβ fibrillization as compared to control: FIG. 7; for Aβ fibrillization as compared to the control: FIG. 12; for fibrillization of Aβ protein: FIG. 9, control = 100. The procedure:
Referring to FIG. 7, FIG. 7 is a bar graph 700 showing a percentage of Aβ fibrillization as compared to a control for neoliquiritin, sebiricose A5, (Z)SA glycoside, and (E)SA glycoside. The bar graph 700 includes a control sample with 10 μM Aβ protein. The amount of Aβ fibrillization in the control sample is normalized to 100%. All other samples in the bar graph 700 include 10 μM Aβ protein and another compound at a concentration of 100 μM.
Referring to FIG. 8, FIG. 8 is a bar graph 800 showing a percentage of Aβ fibrillization as compared to a control for neoliquiritin samples of various concentrations. The amount of Aβ fibrillization in the control sample is normalized to 100%. All other samples in the bar graph 800 include 10 μM Aβ protein and a variable concentration of neoliquiritin.
Referring to FIG. 9, FIG. 9 is a bar graph 900 showing a percentage of Aβ fibrillization as compared to a control for neoliquiritin and liquiritigenin samples of various concentrations. Like the other bar graphs, the control sample is on the left side of the bar graph 900. The control sample comprises 10 μM Aβ protein and the percent fibrillization of Aβ protein in the control sample is normalized to 100. All other samples, which contain either neoliquiritin or liquiritigenin, also include a concentration of 10 μM Aβ protein.
Referring to FIG. 12, FIG. 12 is a bar graph 1200 showing a percentage of Aβ fibrillization as compared to a control for sinapic acid, trans-sinapic acid, and sinapic acid O-glucoside at various concentrations. On the left side of the bar graph 1200, a control sample comprising 10 μM Aβ protein has a fibrillization measurement normalized to 100. All other samples include the same concentration of 10 μM Aβ protein as a control sample.

The test system of another experiment is SH-SY5Y cells. Put plainly: Survival of SH-SY5Y cells in solutions of Aβ. Type of experiment: cell-based. The conditions noted are these: FIG. 11, Aβ-only control 69%. The procedure:
Referring to FIG. 10, FIG. 10 is a bar graph 1000 showing a percentage of survival of SH-SY5Y cells in solutions of Aβ and various concentrations of neoliquiritin. […] All the samples in the bar graph 1000 comprised the same concentration of 10 μM Aβ protein as the control sample as well as a variable concentration of neoliquiritin.
Referring to FIG. 11, FIG. 11 is a bar graph 1100 showing a percentage of survival of SH-SY5Y cells in solutions of neoliquiritin, isoliquiritigenin, isoliquiritin, sinapic acid O-glucoside, trans-sinapic acid, and liquiritigenin at various concentrations. […] The other samples in the bar graph 1100 all contain the same concentration of 10 μM Aβ protein as a control sample.

The target of another experiment is T2, Aβ fibrils (Homo sapiens, UniProt P05067).
T2 construct: The bar graph 700 includes a control sample with 10 μM Aβ protein
Nature of the experiment: Relative fluorescence of prefibrillated Aβ after timed treatment. As to conditions: FIG. 14, 50 μM compound. Type of experiment: biochemical. An excerpt:
Control samples containing only Aβ protein as starting material are unshaded. Other samples containing Aβ protein and an additional compound have shading according to the legend on the bottom of the bar graphs 1400.

Setting [1] is: 10 μM Aβ protein and 100 μM compound.
Where [2] appears, read: 10 μM Aβ protein and 100 nM compound.
Setting [3] is: 10 μM Aβ protein and 1 μM compound.
Where [4] appears, read: 10 μM Aβ protein and 10 μM compound.

Several values for one entry are separate records, joined by “and”; a condition that tells them apart may be missing. Equal values may be shown once.

T2 sequence (P05067 672-711 limits assumed): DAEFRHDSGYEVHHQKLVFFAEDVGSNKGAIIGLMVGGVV
T1 sequence (P05067 672-711 limits assumed): as above

On to `COc1cc(/C=C/C(=O)O)cc(OC)c1O[C@@H]1O[C@H](O)[C@@H](O)[C@H](O)[C@H]1O` [(E)SA glycoside], for which, at Aβ protein (setting [1]), the “Aβ fibrillization as compared to control” value was 51%.

With `COc1cc(/C=C/C(=O)O)cc(OC)c1O` [SA, sinapic acid, reference compound], the “Aβ fibrillization as compared to the control” value on Aβ protein (setting [2]) came to 105%; on Aβ protein (setting [3]), 101%; on Aβ protein (setting [4]) it was 114%; at Aβ protein (setting [1]) it was 85%.

Turning to `COc1cc(/C=C/C(=O)O)cc(OC)c1O` [T-SA, trans-sinapic acid, reference compound], the “Aβ fibrillization as compared to the control” value on Aβ protein (setting [2]) came out at 98%; on Aβ protein (setting [3]), 95%; at Aβ protein (setting [4]), 89%; at Aβ protein (setting [1]), 79%. Also, the figures for the “survival for the SH-SY5Y cells” value in the experiment on SH-SY5Y cells (setting [3]) and in the experiment with SH-SY5Y cells (setting [4]) were 76% and 77%, respectively. Further, the “Relative fluorescence for Aβ fibrils” value on Aβ fibrils (46.5 hours, Aβ only approximately 900000) was “approximately 850000 RFU”; on Aβ fibrils (48 hours, Aβ only approximately 1070000), “approximately 940000 RFU”; at Aβ fibrils (60 hours, Aβ only approximately 1010000), “approximately 940000 RFU”; at Aβ fibrils (72 hours, Aβ only approximately 980000) it was “approximately 770000 RFU”.

With `O=C(/C=C/c1ccc(O)cc1)c1ccc(O)cc1O` [isoliquiritigenin], the “survival for the SH-SY5Y cells” value with SH-SY5Y cells (setting [3]) stood at 84%; in the experiment with SH-SY5Y cells (setting [4]) it was 81%.

Consider `O=C(/C=C/c1ccc(O[C@@H]2O[C@H](CO)[C@@H](O)[C@H](O)[C@H]2O)cc1)c1ccc(O)cc1O` [isoliquiritin], for which the “survival for the SH-SY5Y cells” value in the experiment with SH-SY5Y cells (setting [3]) is 72%; in the experiment with SH-SY5Y cells (setting [4]), 74%.

For the compound `O=C1C[C@@H](c2ccc(O)cc2)Oc2cc(O)ccc21` [liquiritigenin, reference compound], the “fibrillization of Aβ protein” value at Aβ protein (100 nM compound and 10 μM Aβ protein) was 94%; on Aβ protein (10 μM compound and 10 μM Aβ protein), 92% and 90%; at Aβ protein (50 μM compound and 10 μM Aβ protein) it was 97%; on Aβ protein (100 μM compound and 10 μM Aβ protein), 83%. Further, the “survival for the SH-SY5Y cells” value in the experiment on SH-SY5Y cells (setting [3]) and with SH-SY5Y cells (setting [4]) was 67% in each case.

Take Sebiricose A5 [reference compound]: at Aβ protein (setting [1]), the “Aβ fibrillization as compared to control” value is on record as 86%.

The values above are taken from US20250177426A1, “METHODS AND COMPOSITIONS FOR TREATING DEMENTIA” (Cognitive Synergy Corporation, priority 2023, published 2025).
